Test results taken from PMC8406298, “Discovery of Fungus-Specific Targets and Inhibitors Using Chemical Phenotyping of Pathogenic Spore Germination” (mBio, 2021).

Assays:
Candida albicans = system: Candida albicans; design: method as in PMID 16876761; conditions: cited from earlier work
Cryptococcus spores [1] = assay: Quantitative germination assay (QGA), automated microscopy of spore germination; type: cell-based, Cryptococcus neoformans serotype D (deneoformans); conditions: for germination inhibition phenotype (chemical phenotype) in QGA: at phenotypic concentration
Protocol: In this automated microscopy-based assay, germination progression of spores is monitored as a function of changes in cell morphology over time (spores are small and oval; yeast are large and circular). Individual spores in a population (∼1 × 10^4 per sample) are measured to determine size (area) and shape (aspect ratio) from the onset of germination, and the data are collected for each cell over the time of germination (Fig. 1A).
Germination assays were modified from those described by Barkal et al. to introduce automation, increase throughput, and refine assay consistency ([12]). Briefly, 384-well plates (Thermo Scientific 142762) were loaded with 10^5 spores per well, and at 0 h, synthetic medium plus 2% dextrose (SD medium) containing the compounds of interest was added to the sample (final volume of 40 μl). All compounds were tested initially at 80 μM; however, concentrations were changed on a case-by-case basis for subsequent experiments. All assays and controls were performed with a final concentration of 0.8% DMSO (the compound solvent) unless specified otherwise. Spores were germinated at 30°C in a humidified chamber, and the same ∼5 × 10^3 cells were monitored every 2 h for 16 h. Imaging was performed on a Ti2 Nikon microscope, and each condition was visualized in a minimum of two individual wells with three fields of view acquired from each well. All images were analyzed as described previously based on cell shape and size using ImageJ. The population ratios of spores, intermediates, and yeast were determined. Error bars in plots are based on the variation among all fields of view acquired. Level of germination was determined by quantifying the decrease in the proportion of spores in a population, and rates were quantified by determining the change in this proportion over time. For all two-dimensional histograms, the x axis represents area from 0 μm^2 to 25 μm^2, and the y axis represents the aspect ratio from 0.4 to 1.
Cycloheximide (0.078 μM to 80 μM) (Dot Scientific, Inc. DSC81040-1), G418 (1.6 mM) (Fisher Scientific AAJ6267106), and puromycin (20 mM) (Dot Scientific, Inc. DSP33020-0.025) were tested with no DMSO (all were water soluble), whereas anisomycin (62.5 μM) (Sigma-Aldrich A9789-5MG) was tested in 2.5% DMSO.
Furcarbanil (80 μM) (Sigma-Aldrich T313122), rotenone (10 μM) (Fisher Scientific 501687383), and antimycin A (2.5 μM) (Santa Cruz Biotechnology, Inc. sc-202467A) were all tested in 0.8% DMSO, and TTFA (200 μM) (Sigma-Aldrich 88300-5G) was tested in 3% DMSO.

[2] = system: Cryptococcus spores harboring CNK01510-NL fusion; assay: Nanoluciferase germination screen (HTS); type: cell-based, Cryptococcus neoformans serotype D (deneoformans)
From the text: To identify potential inhibitors of spore germination, a nanoluciferase (NL)-based high-throughput screening (HTS) assay was developed, and compounds from three libraries of structurally diverse, drug-like small molecules (LifeChem 1 to 3) were screened (see Fig. S1 in the supplemental material). For the assay, a previously identified protein (CNK01510) was fused to the nanoluciferase protein (Promega) and introduced into its endogenous locus in the Cryptococcus genome ([14]). Strains harboring the integrated NL protein fusion were crossed under sexual development conditions to produce spores. Spores from the NL strains yielded very little NL enzyme activity; however, yeast from those strains produced a robust NL signal. Most importantly, the amount of NL signal correlated with the germination state. As spores germinated into yeast, the levels of NL signal increased, resulting in a robust signal over baseline at the end of germination (∼14-fold) (Fig. S1). […] Secondary screens were performed on these hits to determine effects on yeast replication, cytotoxicity against mammalian fibroblasts, and direct inhibition of the NL enzyme (see Data Set S1).
Screening of the LifeChem libraries (Life Chemicals) was carried out with the assistance of the University of Wisconsin—Madison (UW-Madison) small-molecule screening facility. All NL screening was performed as described previously ([7]). […]

Cryptococcus spores [3] = system: Cryptococcus spores; design: method as in PMID 31570398; conditions: previous study; cited from earlier work

Structure (SMILES)	effect on hyphal formation (Candida albicans)	phenotypic concentration (concentration showing the germination phenotype in QGA) (Cryptococcus spores [1]) [µM]	germination inhibition phenotype (chemical phenotype) in QGA (Cryptococcus spores [1])	NL signal in germination screen [2]	inhibition of germination (changes in size or shape) (Cryptococcus spores [1]; 10 µM)	IC50 (Cryptococcus spores [1]; Cryptococcus, 16 h, read-out: 50% inhibitory concentration (IC50) of spore germination) [nM]	germination inhibition phenotype in QGA (Cryptococcus spores [3])
O=C(CC(=O)C(F)(F)F)c1cccs1 [TTFA, thenoyltrifluoroacetone, reference compound]	prevent hyphal formation	200	asynchrony	–	–	–	–
C[C@@H]1C[C@@H]([C@H](O)CC2CC(=O)NC(=O)C2)C(=O)[C@@H](C)C1 [cycloheximide, reference compound]	–	–	slow-down	low levels of NL signal	full inhibition of germination	1700	–
CCN(CC)C(=S)SSC(=S)N(CC)CC [disulfiram]	–	–	–	–	–	–	slow-end
